{"source": "patent US11597708B2", "about": "“Inhibitors of heat shock factors and uses thereof” (HSF Pharmaceuticals SA, priority 2016, dated 2023)", "key": {"[1]": {"test_system": "KD 13 (HeLa-derived, HSF1 siRNA)", "assay": "Alamar Blue assay of HSF1-deficient KD 13 line versus KD control cells", "format": "cell-based, human", "conditions": "96 hours exposure, different concentrations", "experimental": "FIG. 7. (A) Upper panel: HSF1 levels in cultures of KD control and KD13 cells as assayed by WB. Lower panel: number of alive KD control and KD13 cells after 1-4 days of culture as determined by Trypan Blue dye exclusion. […] Cell viability was assayed by Alamar Blue assay.\nThe most severely HSF1-deficient lines grew slowly. FIG. 7 reports on the properties of one such line, KD 13, which was compared to control lentivirus-transduced cells (KD control). The WB in FIG. 7A (upper panel) confirms that the KD 13 line is essentially devoid of HSF1. The lower panel compares growth of the cell line with that of the control cells (the graph showing numbers of Trypan Blue-excluding (live) cells after 1-4 days of culture). We conclude that the KD 13 line has partially overcome its HSF1 dependency."}, "SK-N-SH": {"test_system": "SK-N-SH", "assay": "Alamar Blue viability assay", "format": "cell-based", "conditions": "Homo sapiens, Neuroblastoma, P53 Wt, 96-hour exposure", "experimental": "(§1) Cultures of HeLa cells were exposed for 96 hours to different concentrations of IHSF 001, 058 and 115, and viability was assessed using an Alamar Blue assay. It is noted that this standard assay examines attached cells only. This subject will be discussed in more detail below. […] The relative cytotoxicity of the compounds appears to parallel their respective activities as inhibitors of HSF1 function (inhibition of RLuc expression in Z74 cells). We next examined the viability of different human cancer cell lines subsequent to a 96-hour exposure to compound 115 (Table 3). HSF1 was reported as being required for optimal p21 expression and for p53-mediated cell cycle arrest in response to genotoxins. Logan, I. R. et al. (2009) Nucleic Acids Res. 37: 2962-2971. […] Cell lines of different p53 status were included in the experiments in order to find out whether sensitivity to IHSF 115 was related to p53 status. […] No effect of p53 status could be discovered. It is noted that a number of additional HSF inhibitors of the present disclosure were tested and found to effectively reduce the viability of human cancer cells."}, "BT-20": {"test_system": "BT-20", "assay": "Alamar Blue viability assay", "format": "cell-based", "conditions": "Homo sapiens, Breast, P53 Mut, 96-hour exposure", "experimental": "as §1"}, "A549": {"test_system": "A549", "assay": "Alamar Blue viability assay", "format": "cell-based", "conditions": "Homo sapiens, Lung, P53 Wt, 96-hour exposure", "experimental": "as §1"}, "MM.1R": {"test_system": "MM.1R", "assay": "Alamar Blue viability assay", "format": "cell-based", "conditions": "Homo sapiens, Multiple myeloma, P53 Wt, 96-hour exposure", "experimental": "as §1"}, "NCI-H3122": {"test_system": "NCI-H3122", "assay": "Alamar Blue viability assay", "format": "cell-based", "conditions": "Homo sapiens, Lung, P53 Wt, 96-hour exposure", "experimental": "as §1"}, "U266B1": {"test_system": "U266B1", "assay": "Alamar Blue viability assay", "format": "cell-based", "conditions": "Homo sapiens, Multiple myeloma, P53 Mut, 96-hour exposure", "experimental": "as §1"}, "MG-63": {"test_system": "MG-63", "assay": "Alamar Blue viability assay", "format": "cell-based", "conditions": "Homo sapiens, Osteosarcoma, P53 Mut, 96-hour exposure", "experimental": "as §1"}, "IM9": {"test_system": "IM9", "assay": "Alamar Blue viability assay", "format": "cell-based", "conditions": "Homo sapiens, IM-9, Multiple myeloma, P53 Wt, 96-hour exposure", "experimental": "as §1"}, "MDA-MB-453": {"test_system": "MDA-MB-453", "assay": "Alamar Blue viability assay", "format": "cell-based", "conditions": "Homo sapiens, Breast, P53 Mut, 96-hour exposure", "experimental": "as §1"}, "CAMA-1": {"test_system": "CAMA-1", "assay": "Alamar Blue viability assay", "format": "cell-based", "conditions": "Homo sapiens, Breast, P53 Mut, 96-hour exposure", "experimental": "as §1"}, "A673": {"test_system": "A673", "assay": "Alamar Blue viability assay", "format": "cell-based", "conditions": "Homo sapiens, Ewing’s sarcoma, P53 Mut, 96-hour exposure", "experimental": "as §1"}, "NCI-H1975": {"test_system": "NCI-H1975", "assay": "Alamar Blue viability assay", "format": "cell-based", "conditions": "Homo sapiens, Lung, P53 Wt, 96-hour exposure", "experimental": "as §1"}, "sNF02.2": {"test_system": "sNF02.2", "assay": "Alamar Blue viability assay", "format": "cell-based", "conditions": "Homo sapiens, Malignant peripheral nerve sheath, P53 Wt, 96-hour exposure", "experimental": "as §1"}, "MCF-7": {"test_system": "MCF-7", "assay": "Alamar Blue viability assay", "format": "cell-based", "conditions": "Homo sapiens, MCF7, Breast, P53 Wt, 96-hour exposure", "experimental": "as §1"}, "BT-474": {"test_system": "BT-474", "assay": "Alamar Blue viability assay", "format": "cell-based", "conditions": "Homo sapiens, Breast, P53 Mut, 96-hour exposure", "experimental": "as §1"}, "sNF96.2": {"test_system": "sNF96.2", "assay": "Alamar Blue viability assay", "format": "cell-based", "conditions": "Homo sapiens, Malignant peripheral nerve sheath, P53 Wt, 96-hour exposure", "experimental": "as §1"}, "RPMI 8266": {"test_system": "RPMI 8266", "assay": "Alamar Blue viability assay", "format": "cell-based", "conditions": "Homo sapiens, RPMI8266, Multiple myeloma, P53 Mut, 96-hour exposure", "experimental": "as §1"}, "PEA1": {"test_system": "PEA1", "assay": "Alamar Blue viability assay", "format": "cell-based", "conditions": "Homo sapiens, Ovarian carcinoma, P53 Mut, 96-hour exposure", "experimental": "as §1"}, "HCC1143": {"test_system": "HCC1143", "assay": "Alamar Blue viability assay", "format": "cell-based", "conditions": "Homo sapiens, Breast, P53 Mut, 96-hour exposure", "experimental": "as §1"}, "OV56": {"test_system": "OV56", "assay": "Alamar Blue viability assay", "format": "cell-based", "conditions": "Homo sapiens, Ovarian carcinoma, P53 Mut, 96-hour exposure", "experimental": "as §1"}, "NCI-H460": {"test_system": "NCI-H460", "assay": "Alamar Blue viability assay", "format": "cell-based", "conditions": "Homo sapiens, Lung, P53 Wt, 96-hour exposure", "experimental": "as §1"}, "Saos-2": {"test_system": "Saos-2", "assay": "Alamar Blue viability assay", "format": "cell-based", "conditions": "Homo sapiens, Osteosarcoma, P53 Null, 96-hour exposure", "experimental": "as §1"}, "MNNG/HOS": {"test_system": "MNNG/HOS", "assay": "Alamar Blue viability assay", "format": "cell-based", "conditions": "Homo sapiens, Osteosarcoma, P53 Mut, 96-hour exposure", "experimental": "as §1"}, "NCI-H2228": {"test_system": "NCI-H2228", "assay": "Alamar Blue viability assay", "format": "cell-based", "conditions": "Homo sapiens, Lung, P53 Wt, 96-hour exposure", "experimental": "as §1"}, "SK-OV-3": {"test_system": "SK-OV-3", "assay": "Alamar Blue viability assay", "format": "cell-based", "conditions": "Homo sapiens, Ovarian carcinoma, P53 Mut, 96-hour exposure", "experimental": "as §1"}, "THP-1": {"test_system": "THP-1", "assay": "Alamar Blue viability assay", "format": "cell-based", "conditions": "Homo sapiens, Acute monocytic leukemia, P53 Mut, 96-hour exposure", "experimental": "as §1"}, "PC-3": {"test_system": "PC-3", "assay": "Alamar Blue viability assay", "format": "cell-based", "conditions": "Homo sapiens, Prostate, P53 Null, 96-hour exposure", "experimental": "as §1"}, "T47D": {"test_system": "T47D", "assay": "Alamar Blue viability assay", "format": "cell-based", "conditions": "Homo sapiens, Breast, P53 Mut, 96-hour exposure", "experimental": "as §1"}, "U-2 OS": {"test_system": "U-2 OS", "assay": "Alamar Blue viability assay", "format": "cell-based", "conditions": "Homo sapiens, U2OS, Osteosarcoma, P53 WT, 96-hour exposure", "experimental": "as §1"}, "HepG2": {"test_system": "HepG2", "assay": "Alamar Blue viability assay", "format": "cell-based", "conditions": "Homo sapiens, Hepatocellular, P53 Wt, 96-hour exposure", "experimental": "as §1"}, "MDA-MB-231": {"test_system": "MDA-MB-231", "assay": "Alamar Blue viability assay", "format": "cell-based", "conditions": "Homo sapiens, Breast, P53 Mut, 96-hour exposure", "experimental": "as §1"}}, "data": [{"compound": "CN(C(=O)/C=C/C1=NCCCO1)c1ncc(-c2cccnc2)s1", "note": "[IHSF 115, (E)-3-(5,6-Dihydro-4H-[1,3]oxazin-2-yl)-N-methyl-N-(5-pyridin-3-yl-thiazol-2-yl)-acrylamide]", "values": [{"measurement": "resistance of KD 13 line versus control lentivirus-transduced cells to killing", "setting": "[1]", "value": "more resistant to killing"}, {"measurement": "EC50", "setting": "SK-N-SH", "value": 4, "unit": "µM"}, {"measurement": "EC50", "setting": "BT-20", "value": 8.2, "unit": "µM"}, {"measurement": "EC50", "setting": "A549", "value": 18.8, "unit": "µM"}, {"measurement": "EC50", "setting": "MM.1R", "value": 1.7, "unit": "µM"}, {"measurement": "EC50", "setting": "NCI-H3122", "value": 11, "unit": "µM"}, {"measurement": "EC50", "setting": "U266B1", "value": 3.9, "unit": "µM"}, {"measurement": "EC50", "setting": "MG-63", "value": 4.6, "unit": "µM"}, {"measurement": "EC50", "setting": "IM9", "value": 2.3, "unit": "µM"}, {"measurement": "EC50", "setting": "MDA-MB-453", "value": 4.2, "unit": "µM"}, {"measurement": "EC50", "setting": "CAMA-1", "value": 3.5, "unit": "µM"}, {"measurement": "EC50", "setting": "A673", "value": 1.9, "unit": "µM"}, {"measurement": "EC50", "setting": "NCI-H1975", "value": 5.1, "unit": "µM"}, {"measurement": "EC50", "setting": "sNF02.2", "value": 8.4, "unit": "µM"}, {"measurement": "EC50", "setting": "MCF-7", "value": 5.2, "unit": "µM"}, {"measurement": "EC50", "setting": "BT-474", "value": 5.2, "unit": "µM"}, {"measurement": "EC50", "setting": "sNF96.2", "value": 4.2, "unit": "µM"}, {"measurement": "EC50", "setting": "RPMI 8266", "value": 3.6, "unit": "µM"}, {"measurement": "EC50", "setting": "PEA1", "value": 4.1, "unit": "µM"}, {"measurement": "EC50", "setting": "HCC1143", "value": 4.8, "unit": "µM"}, {"measurement": "EC50", "setting": "OV56", "value": 6.8, "unit": "µM"}, {"measurement": "EC50", "setting": "NCI-H460", "value": 9.4, "unit": "µM"}, {"measurement": "EC50", "setting": "Saos-2", "value": 8, "unit": "µM"}, {"measurement": "EC50", "setting": "MNNG/HOS", "value": 9.2, "unit": "µM"}, {"measurement": "EC50", "setting": "NCI-H2228", "value": 12.8, "unit": "µM"}, {"measurement": "EC50", "setting": "SK-OV-3", "value": 15, "unit": "µM"}, {"measurement": "EC50", "setting": "THP-1", "value": 6.9, "unit": "µM"}, {"measurement": "EC50", "setting": "PC-3", "value": 4, "unit": "µM"}, {"measurement": "EC50", "setting": "T47D", "value": 4.4, "unit": "µM"}, {"measurement": "EC50", "setting": "U-2 OS", "value": 5.2, "unit": "µM"}, {"measurement": "EC50", "setting": "HepG2", "value": 5.2, "unit": "µM"}, {"measurement": "EC50", "setting": "MDA-MB-231", "value": 2.2, "unit": "µM"}]}]}
